Assay results reported in patent US10370333B2 (Sanford Burnham Prebys Medical Discovery Institute, priority 2012, dated 2019).
pIC50: −log10 of the molar value.

Target: TNAP (Homo sapiens (Human), UniProt P05186)
Experiment: TNAP (PPi) inhibition assay, pyrophosphate as substrate
Format: biochemical
Protocol: Expression plasmids containing a secreted epitope-tagged TNAP were transfected into COS-1 cells for transient expression. The medium was replaced with Opti-MEM 24 h later and serum-free media containing secreted proteins was collected 60 hours after electroporation. The medium was dialyzed against TBS containing 1 mM MgCl2 and […] (to remove phosphate) and filtered through a […] cellulose acetate filter.
To determine the inhibition selectivity for inhibitor candidates, human TNAP, PLAP or IAP were added to microtiter plates followed by addition of the substrate pNPP (0.5 mM) and activity was measured in 1 M DEA-HCl buffer, pH 9.8 or in 1 M Tris-HCl buffer, pH 7.5, containing 1 mM MgCl2 and 20 μM ZnCl2, in the presence of potential inhibitors (0-30 μM). TNAP, PLAP and IAP activities were adjusted to an approximate λA405 nm, equivalent to 1, measured after 30 min. Residual AP activity in the presence of inhibitors was expressed as percentage of the control activity. To investigate the mechanism of inhibition, double reciprocal plots of enzyme activity (expressed as mA405 nm min−1) vs. substrate concentration were constructed, in the presence of various concentrations of added inhibitors (0-30 μM). The y-axis intercepts of the 1/v vs. 1/[S] plots, were then plotted vs. [I] to graphically extract Ki values as the x-intercept in this plot. […] Inhibitors were further tested and sorted based on their kinetic properties at pH 7.4 using PPi, the relevant natural substrate of TNAP. […] Amounts of released phosphate were measured using the Biomol Green Reagent (Biomol Research Laboratories, Inc., Plymouth Meeting, Pa.).

pIC50 | Structure (SMILES)
< 6.00 | COc1ccc(Br)cc1S(=O)(=O)Nc1cscn1
< 6.00 | COc1ccc(OC)c(S(=O)(=O)Nc2cscn2)c1
6.00 to 7.00 | COc1ccc(Cl)cc1S(=O)(=O)Nc1cncc(-c2ccccc2C(F)(F)F)c1
6.00 to 7.00 | COc1ccc(-c2ccsc2)cc1S(=O)(=O)Nc1cccnc1 [Example I-8, 2-Methoxy-N-pyridin-3-yl-5-thiophen-3-yl-benzenesulfonamide]
6.00 to 7.00 | COc1ccc(-c2ccoc2)cc1S(=O)(=O)Nc1cccnc1 [Example I-9, 5-Furan-3-yl-2-methoxy-N-pyridin-3-yl-benzenesulfonamide]
< 6.00 | COc1ccc(-c2ccncc2)cc1S(=O)(=O)Nc1cccnc1 [Example I-10, 2-Methoxy-5-pyridin-4-yl-N-pyridin-3-yl-benzenesulfonamide]
< 6.00 | COc1ccc(S(=O)(=O)Nc2cccnc2)cc1Cl [Example I-12, 3-Chloro-4-methoxy-N-pyridin-3-yl-benzenesulfonamide]
< 6.00 | COc1c(Cl)cccc1S(=O)(=O)Nc1cccnc1 [Example I-13, 3-Chloro-2-methoxy-N-pyridin-3-yl-benzenesulfonamide]
< 6.00 | CNC(=O)c1ccc(OC)c(S(=O)(=O)Nc2cccnc2)c1 [Example I-16, 4-Methoxy-N-methyl-3-(pyridin-3-ylsulfamoyl)-benzamide]
< 6.00 | CCNC(=O)c1ccc(OC)c(S(=O)(=O)Nc2cccnc2)c1 [Example I-17, N-Ethyl-4-methoxy-3-(pyridin-3-ylsulfamoyl)-benzamide]
< 6.00 | CCCNC(=O)c1ccc(OC)c(S(=O)(=O)Nc2cccnc2)c1 [Example I-18, 4-Methoxy-N-propyl-3-(pyridin-3-ylsulfamoyl)-benzamide]
< 6.00 | COc1ccc(C(=O)Nc2ccccc2)cc1S(=O)(=O)Nc1cccnc1 [Example I-19, 4-Methoxy-N-phenyl-3-(pyridin-3-ylsulfamoyl)-benzamide]
< 6.00 | COc1ccc(C(=O)NC2CCCCC2)cc1S(=O)(=O)Nc1cccnc1 [Example I-20, N-Cyclohexyl-4-methoxy-3-(pyridin-3-ylsulfamoyl)-benzamide]
< 6.00 | COCCNC(=O)c1ccc(OC)c(S(=O)(=O)Nc2cccnc2)c1 [Example I-21, 4-Methoxy-N-(2-methoxy-ethyl)-3-(pyridin-3-ylsulfamoyl)-benzamide]
< 6.00 | COc1ccc(C(=O)N2CCN(C)CC2)cc1S(=O)(=O)Nc1cccnc1 [Example I-22, 2-Methoxy-5-(4-methyl-piperazine-1-carbonyl)-N-pyridin-3-yl-benzenesulfonamide]
< 6.00 | COc1ccc(C(=O)N2CCOCC2)cc1S(=O)(=O)Nc1cccnc1 [Example I-23, 2-Methoxy-5-(morpholine-4-carbonyl)-N-pyridin-3-yl-benzenesulfonamide]
> 7.00 | COc1cc(C)ccc1S(=O)(=O)Nc1cnc2ccccc2c1 [Example II-3, 2-Methoxy-4-methyl-N-quinolin-3-yl-benzenesulfonamide]
6.00 to 7.00 | COc1ccc(-c2ccoc2)cc1S(=O)(=O)Nc1cnc2ccccc2c1 [Example II-7, 5-Furan-3-yl-2-methoxy-N-quinolin-3-yl-benzenesulfonamide]
< 6.00 | COc1ccc(-c2ccsc2)cc1S(=O)(=O)Nc1cnc2ccccc2c1 [Example II-8, 2-Methoxy-N-quinolin-3-yl-5-thiophen-3-yl-benzenesulfonamide]

pIC50 | Structure (SMILES)
6.00 to 7.00 | COc1ccc(-c2ccncc2)cc1S(=O)(=O)Nc1cnc2ccccc2c1 [Example II-9, 2-Methoxy-5-pyridin-4-yl-N-quinolin-3-yl-benzenesulfonamide]
> 7.00 | COc1cc(Cl)ccc1S(=O)(=O)Nc1cnc2ccccc2c1 [Example II-10, 4-Chloro-2-methoxy-N-quinolin-3-yl-benzenesulfonamide]
< 6.00 | COc1ccc(S(=O)(=O)Nc2cnc3ccccc3c2)cc1Cl [Example II-11, 3-Chloro-4-methoxy-N-quinolin-3-yl-benzenesulfonamide]
< 6.00 | COc1c(Cl)cccc1S(=O)(=O)Nc1cnc2ccccc2c1 [Example II-12, 3-Chloro-2-methoxy-N-quinolin-3-yl-benzenesulfonamide]
> 7.00 | COC(=O)c1ccc(OC)c(S(=O)(=O)Nc2cnc3ccccc3c2)c1 [Example II-13, Methyl 4-methoxy-3-(N-(quinolin-3-yl)sulfamoyl)benzoate]
6.00 to 7.00 | COc1ccc(C(N)=O)cc1S(=O)(=O)Nc1cnc2ccccc2c1 [Example II-14, 4-Methoxy-3-(quinolin-3-ylsulfamoyl)-benzamide]
6.00 to 7.00 | CCNC(=O)c1ccc(OC)c(S(=O)(=O)Nc2cnc3ccccc3c2)c1 [Example II-16, N-Ethyl-4-methoxy-3-(quinolin-3-ylsulfamoyl)-benzamide]
6.00 to 7.00 | CCCNC(=O)c1ccc(OC)c(S(=O)(=O)Nc2cnc3ccccc3c2)c1 [Example II-17, 4-Methoxy-N-propyl-3-(quinolin-3-ylsulfamoyl)-benzamide]
< 6.00 | COc1ccc(C(=O)Nc2ccccc2)cc1S(=O)(=O)Nc1cnc2ccccc2c1 [Example II-18, 4-Methoxy-N-phenyl-3-(quinolin-3-ylsulfamoyl)-benzamide]
< 6.00 | COc1ccc(C(=O)NC2CCCCC2)cc1S(=O)(=O)Nc1cnc2ccccc2c1 [Example II-19, N-Cyclohexyl-4-methoxy-3-(quinolin-3-ylsulfamoyl)-benzamide]
6.00 to 7.00 | COCCNC(=O)c1ccc(OC)c(S(=O)(=O)Nc2cnc3ccccc3c2)c1 [Example II-20, 4-Methoxy-N-(2-methoxy-ethyl)-3-(quinolin-3-ylsulfamoyl)-benzamide]
6.00 to 7.00 | COc1ccc(C(=O)NCCN(C)C)cc1S(=O)(=O)Nc1cnc2ccccc2c1 [Example II-21, N-(2-Dimethylamino-ethyl)-4-methoxy-3-(quinolin-3-ylsulfamoyl)-benzamide]
< 6.00 | COc1ccc(C(=O)N2CCN(C)CC2)cc1S(=O)(=O)Nc1cnc2ccccc2c1 [Example II-22, 2-Methoxy-5-(4-methyl-piperazine-1-carbonyl)-N-quinolin-3-yl-benzenesulfonamide]
6.00 to 7.00 | COc1ccc(C(=O)N2CCOCC2)cc1S(=O)(=O)Nc1cnc2ccccc2c1 [Example II-23, 2-Methoxy-5-(morpholine-4-carbonyl)-N-quinolin-3-yl-benzenesulfonamide]
> 7.00 | COc1ccc(-c2cncc(NS(=O)(=O)c3cc(OC)ccc3OC)c2)cc1 [Example III-1]
6.00 to 7.00 | COc1ccc(OC)c(S(=O)(=O)Nc2cncc(-c3ccc(OCc4ccccc4)cc3)c2)c1 [Example III-4, N-(5-(4-(Benzyloxy)phenyl)pyridin-3-yl)-2,5-dimethoxybenzenesulfonamide]
6.00 to 7.00 | COc1ccc(Br)cc1S(=O)(=O)Nc1cncc(-c2ccc(OCc3ccccc3)cc2)c1 [Example III-5, N-(5-(4-(Benzyloxy)phenyl)pyridin-3-yl)-5-bromo-2-methoxybenzenesulfonamide]
6.00 to 7.00 | COc1ccc(Cl)cc1S(=O)(=O)Nc1cncc(-c2ccc(OCc3ccccc3)cc2)c1 [Example III-6, N-(5-(4-(benzyloxy)phenyl)pyridin-3-yl)-5-chloro-2-methoxybenzenesulfonamide]

Structure (SMILES) | pIC50
COc1cc(Cl)c(Br)cc1S(=O)(=O)Nc1cccnc1 | > 7.00
COc1ccc(Cl)cc1S(=O)(=O)Nc1cncc(-c2ccc(O)cc2)c1 | > 7.00
COc1ccc(OC)c(S(=O)(=O)Nc2ccc(Nc3ccccc3)nc2)c1 | < 6.00
O=C(O)c1cncc(NS(=O)(=O)c2cc(Cl)ccc2OC(F)(F)F)c1 | 6.00 to 7.00
COc1ccc(-c2ccccc2)cc1S(=O)(=O)Nc1cccnc1 [Example I-7, 4-Methoxy-biphenyl-3-sulfonic acid pyridin-3-ylamide] | 6.00 to 7.00
COc1ccc(S(=O)(=O)Nc2cnc3ccccc3c2)c(OC)c1 [Example II-4, 2,4-Dimethoxy-N-quinolin-3-yl-benzenesulfonamide] | < 6.00
COc1ccc(-c2ccccc2)cc1S(=O)(=O)Nc1cnc2ccccc2c1 [Example II-6, 4-Methoxy-biphenyl-3-sulfonic acid quinolin-3-ylamide] | 6.00 to 7.00
CNC(=O)c1ccc(OC)c(S(=O)(=O)Nc2cnc3ccccc3c2)c1 [Example II-15, 4-Methoxy-N-methyl-3-(quinolin-3-ylsulfamoyl)-benzamide] | > 7.00
COc1ccc(-c2cncc(NS(=O)(=O)c3cc(Br)ccc3OC)c2)cc1 [Example III-2, 5-Bromo-2-methoxy-N-[5-(4-methoxy-phenyl)-pyridin-3-yl]-benzenesulfonamide] | 6.00 to 7.00
COc1ccc(OC)c(S(=O)(=O)Nc2cncc(-c3ccc(O)cc3)c2)c1 [Example III-7, N-[5-(4-Hydroxy-phenyl)-pyridin-3-yl]-2,5-dimethoxy-benzenesulfonamide] | > 7.00
COc1ccc(Br)cc1S(=O)(=O)Nc1cncc(-c2ccc(O)cc2)c1 [Example III-8, 5-Bromo-N-[5-(4-hydroxy-phenyl)-pyridin-3-yl]-2-methoxy-benzenesulfonamide] | > 7.00
